Measurements from patent US20230348462A1, “IMIDAZO[4,5-C]QUINOLINE COMPOUNDS AND THEIR USE AS ATM KINASE INHIBITORS” (Deutsches Krebsforschungszentrum, priority 2020, published 2023).

How the values were obtained:
human ATM = human ATM (Homo sapiens (Human), UniProt Q13315); assay: Enzymatic ATM assay (RBC FRET enzyme assay); type: biochemical; settings: substrate p53, 5-point dilution starting at 10 μM
Procedure: The inhibitory activity on the isolated ATM kinase was determined by a commercial supplier (Reaction Biology Corp., PA, US) using an activity based FRET assay. Compounds were therefore first pre-incubated with human ATM before substrate (p53) and ATP were added to initiate the phosphorylation reaction. After a given time, the kinase reaction was stopped and the amount of phosphorylated substrate was quantified using standard FRET detection methods. […] Detailed assay conditions and parameters can be requested from the commercial supplier.

[1] = test system: kras^G12D; mycOE; p53^−/− murine pancreatic cancer cells (KMP53); assay: KMP53 cell assay (XTT cell viability with Etoposide); type: cell-based; settings: Mus musculus, 4 h pre-treatment, then 300 nM Etoposide, 46 h
Source text: A selection of compounds was screened in a cellular assay system in two different cancer cell lines. Therefore, the cells were challenged with a generally non-cytotoxic concentration of Etoposid to induce DNA double strand breaks and the activation of the ATM pathway. The cells were further treated with different concentrations of the final compounds and viability of the cells was quantified using a standard XTT cell viability protocol. The principle of this assay lies in the fact that only alive and thus metabolically active cells are able to catalyze the reduction of XTT ((2,3-bis-(2-methoxy-4-nitro-5-sulfophenyl)-2H-tetrazolium-5-carboxanilide) by NADH from mitochondria, into formazan. The formazan product can be then detected using an absorbance-based microplate reader. The absorbance intensity measured in each well correlates to cell viability.
In brief, kras^G12D; mycOE; p53^−/− murine pancreatic cancer cells (KMP53) and Panc-1 human pancreatic ductal carcinoma cells were seeded in 96-well plates and left to attach overnight. The following day, cells were treated with serial dilutions of compound or DMSO in triplicates. The cells were first pre-treated for 4 hours with inhibitor and then 300 nM of Etoposide was added to each well. Cells were then grown under normal conditions (37° C., 95% air, 5% CO2) for 46 h. Following the incubation period, XTT solution was added to the cells containing 1 mg/ml XTT and 25 μM phenazine methosulfate (PMS) diluted in full culture medium. Cells were incubated in normal conditions for two more hours. For the determination of cell viability, absorbance at 450 nm was measured for each well. Absorbance values were then normalized to DMSO control and expressed as percentages of viability. Using software GraphPad Prism, the values were fitted in a nonlinear response curve and the IC50 values were calculated.

Sequence of human ATM (Q13315 whole entry): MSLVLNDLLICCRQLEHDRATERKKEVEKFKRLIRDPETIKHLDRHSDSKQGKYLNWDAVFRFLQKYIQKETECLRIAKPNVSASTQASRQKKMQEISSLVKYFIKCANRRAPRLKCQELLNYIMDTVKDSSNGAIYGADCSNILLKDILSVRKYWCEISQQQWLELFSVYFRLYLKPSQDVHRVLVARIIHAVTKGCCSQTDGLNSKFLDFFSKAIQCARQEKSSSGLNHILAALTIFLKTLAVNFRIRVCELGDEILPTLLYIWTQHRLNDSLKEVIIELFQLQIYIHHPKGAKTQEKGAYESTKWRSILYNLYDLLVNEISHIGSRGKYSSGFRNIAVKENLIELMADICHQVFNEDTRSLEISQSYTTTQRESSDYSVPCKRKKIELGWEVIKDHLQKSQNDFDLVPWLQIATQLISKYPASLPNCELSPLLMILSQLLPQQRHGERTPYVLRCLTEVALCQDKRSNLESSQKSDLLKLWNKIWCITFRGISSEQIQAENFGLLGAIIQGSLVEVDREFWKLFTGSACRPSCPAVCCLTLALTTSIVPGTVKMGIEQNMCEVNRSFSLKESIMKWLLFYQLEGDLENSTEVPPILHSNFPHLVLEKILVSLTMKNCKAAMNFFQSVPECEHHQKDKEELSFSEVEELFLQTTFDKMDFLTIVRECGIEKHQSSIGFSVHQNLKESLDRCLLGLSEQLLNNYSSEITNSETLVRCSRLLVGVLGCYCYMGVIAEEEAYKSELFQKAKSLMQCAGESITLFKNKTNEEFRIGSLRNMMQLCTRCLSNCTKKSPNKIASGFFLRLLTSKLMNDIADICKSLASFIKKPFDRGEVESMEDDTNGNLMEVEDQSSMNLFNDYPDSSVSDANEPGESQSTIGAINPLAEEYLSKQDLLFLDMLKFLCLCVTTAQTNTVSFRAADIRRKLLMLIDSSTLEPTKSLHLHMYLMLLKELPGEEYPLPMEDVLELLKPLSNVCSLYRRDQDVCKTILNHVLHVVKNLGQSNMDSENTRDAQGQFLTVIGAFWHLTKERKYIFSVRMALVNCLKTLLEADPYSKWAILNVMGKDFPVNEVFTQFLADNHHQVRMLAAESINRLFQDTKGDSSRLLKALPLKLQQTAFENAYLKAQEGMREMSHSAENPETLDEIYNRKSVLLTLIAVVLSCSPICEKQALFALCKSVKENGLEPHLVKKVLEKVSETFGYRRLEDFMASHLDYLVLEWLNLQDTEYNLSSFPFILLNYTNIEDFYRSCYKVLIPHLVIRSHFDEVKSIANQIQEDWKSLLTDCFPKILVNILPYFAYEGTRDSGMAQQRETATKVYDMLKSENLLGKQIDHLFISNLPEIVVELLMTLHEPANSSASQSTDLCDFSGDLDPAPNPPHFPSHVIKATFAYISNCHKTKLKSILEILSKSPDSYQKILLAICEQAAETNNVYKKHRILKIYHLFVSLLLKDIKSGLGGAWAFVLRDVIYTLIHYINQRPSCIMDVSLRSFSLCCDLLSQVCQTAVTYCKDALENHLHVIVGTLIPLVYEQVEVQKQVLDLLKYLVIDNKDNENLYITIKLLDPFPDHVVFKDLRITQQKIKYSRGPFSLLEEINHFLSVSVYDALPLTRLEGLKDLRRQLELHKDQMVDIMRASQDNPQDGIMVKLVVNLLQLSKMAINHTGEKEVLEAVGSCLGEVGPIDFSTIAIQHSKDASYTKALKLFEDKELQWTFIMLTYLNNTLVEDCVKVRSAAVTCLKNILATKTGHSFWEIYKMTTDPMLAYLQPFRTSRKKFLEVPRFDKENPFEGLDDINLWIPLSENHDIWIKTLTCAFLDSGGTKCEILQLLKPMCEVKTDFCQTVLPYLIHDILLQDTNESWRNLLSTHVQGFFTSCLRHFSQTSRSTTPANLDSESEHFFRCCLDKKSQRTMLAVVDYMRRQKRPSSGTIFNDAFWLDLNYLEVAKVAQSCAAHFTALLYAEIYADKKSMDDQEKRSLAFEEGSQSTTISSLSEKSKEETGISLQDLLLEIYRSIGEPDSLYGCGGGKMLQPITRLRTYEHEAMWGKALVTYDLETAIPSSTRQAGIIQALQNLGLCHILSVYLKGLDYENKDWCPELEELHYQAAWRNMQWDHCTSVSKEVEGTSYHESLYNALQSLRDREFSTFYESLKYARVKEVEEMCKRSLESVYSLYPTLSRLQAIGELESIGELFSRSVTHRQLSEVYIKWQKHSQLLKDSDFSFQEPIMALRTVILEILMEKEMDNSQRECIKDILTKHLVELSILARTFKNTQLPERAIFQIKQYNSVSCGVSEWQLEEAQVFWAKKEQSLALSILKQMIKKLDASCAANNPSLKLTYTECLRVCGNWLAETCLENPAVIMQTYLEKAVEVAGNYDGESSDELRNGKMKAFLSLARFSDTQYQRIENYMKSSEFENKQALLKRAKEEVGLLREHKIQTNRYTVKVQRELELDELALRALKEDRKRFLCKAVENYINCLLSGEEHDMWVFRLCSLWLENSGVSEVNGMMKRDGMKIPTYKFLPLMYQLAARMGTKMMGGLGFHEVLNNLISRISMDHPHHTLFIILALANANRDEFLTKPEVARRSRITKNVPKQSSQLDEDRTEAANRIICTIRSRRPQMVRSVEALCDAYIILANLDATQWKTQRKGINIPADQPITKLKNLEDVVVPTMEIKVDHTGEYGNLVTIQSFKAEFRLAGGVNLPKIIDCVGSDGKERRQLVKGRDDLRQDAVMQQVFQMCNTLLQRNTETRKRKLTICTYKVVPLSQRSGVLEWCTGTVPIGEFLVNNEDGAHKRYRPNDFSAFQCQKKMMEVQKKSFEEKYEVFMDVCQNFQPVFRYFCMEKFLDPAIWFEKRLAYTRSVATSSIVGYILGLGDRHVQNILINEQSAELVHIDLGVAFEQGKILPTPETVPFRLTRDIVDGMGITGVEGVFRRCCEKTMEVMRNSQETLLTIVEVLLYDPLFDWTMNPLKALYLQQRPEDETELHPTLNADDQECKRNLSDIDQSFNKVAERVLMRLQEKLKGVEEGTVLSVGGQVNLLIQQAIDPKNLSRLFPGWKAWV

| Structure (SMILES) | IC50 (human ATM) | IC50 [1] |
| --- | --- | --- |
| Cc1nc2cnc3ccc(-c4ccc(OCCCN(C)C)nc4)cc3c2n1C1CCOCC1 [Ex. 2, N,N-Dimethyl-3-((5-(2-methyl-1-(tetrahydro-2H-pyran-4-yl)-1H-imidazo[4,5-c]quinolin-8-yl)pyridin-2-yl)oxy)propan-1-amine] | 2.9 nM | 8100 nM |
| COCCn1c(=O)n(C)c2cnc3ccc(-c4ccc(NC(=O)NCCN(C)C)cc4)cc3c21 [Ex. 11, 1-(2-(Dimethylamino)ethyl)-3-(4-(1-(2-methoxyethyl)-3-methyl-2-oxo-2,3-dihydro-1H-imidazo[4,5-c]quinolin-8-yl)phenyl)urea] | < 1 nM | 4000 nM |
| COCCn1c(=O)n(C)c2cnc3ccc(-c4ccc(NC(=O)NCCN(C)C)c(F)c4F)cc3c21 [Ex. 46, 1-(2,3-Difluoro-4-(1-(2-methoxyethyl)-3-methyl-2-oxo-2,3-dihydro-1H-imidazo[4,5-c]quinolin-8-yl)phenyl)-3-(2-(dimethylamino)ethyl)urea] | 3 nM | 8940 nM |
| COCCn1c(=O)n(C)c2cnc3ccc(-c4ccc(NC(=O)NCCN5CCC5)cc4)cc3c21 [Ex. 49, 1-(2-(Azetidin-1-yl)ethyl)-3-(4-(1-(2-methoxyethyl)-3-methyl-2-oxo-2,3-dihydro-1H-imidazo[4,5-c]quinolin-8-yl)phenyl)urea] | < 1 nM | – |
| CN(C)CCCOc1ccc(-c2ccc3ncc4nc(-c5ccccc5)n(C5CCOCC5)c4c3c2)cn1 [Ex. 4, N,N-Dimethyl-3-((5-(2-phenyl-1-(tetrahydro-2H-pyran-4-yl)-1H-imidazo[4,5-c]quinolin-8-yl)pyridin-2-yl)oxy)propan-1-amine] | 3.7 nM | 2100 nM |
| COCCn1c(=O)n(C)c2cnc3ccc(-c4ccc(NC(=O)NC(C)CN(C)C)cc4)cc3c21 (racemic) [Ex. 52, (RS)-1-(1-(Dimethylamino)propan-2-yl)-3-(4-(1-(2-methoxyethyl)-3-methyl-2-oxo-2,3-dihydro-1H-imidazo[4,5-c]quinolin-8-yl)phenyl)urea] | < 1 nM | 5470 nM |
| CN(C)CCNC(=O)Nc1ccc(-c2ccc3ncc4c(c3c2)n(C2CCOCC2)c(=O)n4C)cc1 [Ex. 10, 1-(2-(Dimethylamino)ethyl)-3-(4-(3-methyl-2-oxo-1-(tetrahydro-2H-pyran-4-yl)-2,3-dihydro-1H-imidazo[4,5-c]quinolin-8-yl)phenyl)urea] | < 1 nM | 1450 nM |
| COCCn1c(=O)n(C)c2cnc3ccc(-c4ccc(NC(=O)N5CCC(NC(=O)OC(C)(C)C)CC5)cc4)cc3c21 [Ex. 13, tert-Butyl (1-((4-(1-(2-methoxyethyl)-3-methyl-2-oxo-2,3-dihydro-1H-imidazo[4,5-c]quinolin-8-yl)phenyl)carbamoyl)piperidin-4-yl)carbamate] | 2.3 nM | – |
| COCCn1cnc2cnc3ccc(-c4ccc(OCCCN(C)C)nc4)cc3c21 [Ex. 5, 3-((5-(1-(2-Methoxyethyl)-1H-imidazo[4,5-c]quinolin-8-yl)pyridin-2-yl)oxy)-N,N-dimethylpropan-1-amine] | 3.3 nM | 3400 nM |
| COCCn1c(=O)n(C)c2cnc3ccc(-c4ccc(NC(=O)NC5CCN(C)CC5)cc4)cc3c21 [Ex. 18, 1-(4-(1-(2-Methoxyethyl)-3-methyl-2-oxo-2,3-dihydro-1H-imidazo[4,5-c]quinolin-8-yl)phenyl)-3-(1-methylpiperidin-4-yl)urea] | 4 nM | – |
| COCCn1c(=O)n(C)c2cnc3ccc(-c4ccc(NC(=O)NCCN(C)C)c(C)c4F)cc3c21 [Ex. 48, 1-(2-(Dimethylamino)ethyl)-3-(3-fluoro-4-(1-(2-methoxyethyl)-3-methyl-2-oxo-2,3-dihydro-1H-imidazo[4,5-c]quinolin-8-yl)-2-methylphenyl)urea] | – | 7950 nM |
| COCCn1c(-c2ccco2)nc2cnc3ccc(-c4ccc(OCCCN(C)C)nc4)cc3c21 [Ex. 6, 3-((5-(2-(Furan-2-yl)-1-(2-methoxyethyl)-1H-imidazo[4,5-c]quinolin-8-yl)pyridin-2-yl)oxy)-N,N-dimethylpropan-1-amine dimesylate] | < 1 nM | 3420 nM |
| COCCn1c(=O)n(C)c2cnc3ccc(-c4ccc(NC(=O)N5CCN(C)CC5)cc4)cc3c21 [Ex. 20, N-(4-(1-(2-methoxyethyl)-3-methyl-2-oxo-2,3-dihydro-1H-imidazo[4,5-c]quinolin-8-yl)phenyl)-4-methylpiperazine-1-carboxamide] | – | 3800 nM |
| COCCn1c(=O)n(C)c2cnc3ccc(-c4ccc(NC(=O)NCCN5CC(F)C5)cc4)cc3c21 [Ex. 50, 1-(2-(3-Fluoroazetidin-1-yl)ethyl)-3-(4-(1-(2-methoxyethyl)-3-methyl-2-oxo-2,3-dihydro-1H-imidazo[4,5-c]quinolin-8-yl)phenyl)urea] | < 1 nM | 8040 nM |
| COCCn1c(=O)n(C)c2cnc3ccc(-c4ccc(NC(=O)N5CCC(N(C)C)C5)cc4)cc3c21 (centres unmarked) [Ex. 25, 3-(Dimethylamino)-N-(4-(1-(2-methoxyethyl)-3-methyl-2-oxo-2,3-dihydro-1H-imidazo[4,5-c]quinolin-8-yl)phenyl)pyrrolidine-1-carboxamide] | 7 nM | – |

Second part, the compound after the results:

| IC50 (human ATM) | IC50 [1] | Structure (SMILES) |
| --- | --- | --- |
| < 1 nM | 7500 nM | CN(C)CCCOc1ccc(-c2ccc3ncc4nc(-c5ccco5)n(C5CCOCC5)c4c3c2)cn1 [Ex. 3, 3-((5-(2-(Furan-2-yl)-1-(tetrahydro-2H-pyran-4-yl)-1H-imidazo[4,5-c]quinolin-8-yl)pyridin-2-yl)oxy)-N,N-dimethylpropan-1-amine] |
| 2.3 nM | 6900 nM | CN(C)CCCOc1ccc(-c2ccc3ncc4ncn(C5CCOCC5)c4c3c2)cn1 [Ex. 1, N,N-Dimethyl-3-((5-(1-(tetrahydro-2H-pyran-4-yl)-1H-imidazo[4,5-c]quinolin-8-yl)pyridin-2-yl)oxy)propan-1-amine] |
| < 1 nM | – | COCCn1c(=O)n(C)c2cnc3ccc(-c4ccc(NC(=O)NC5CCN(C(=O)OC(C)(C)C)CC5)cc4)cc3c21 [Ex. 15, tert-Butyl 4-(3-(4-(1-(2-methoxyethyl)-3-methyl-2-oxo-2,3-dihydro-1H-imidazo[4,5-c]quinolin-8-yl)phenyl)ureido)piperidine-1-carboxylate] |
| 4 nM | – | COCCn1c(=O)n(C)c2cnc3ccc(-c4ccc(NC(=O)N5CC(N(C)C)C5)cc4)cc3c21 [Ex. 26, 3-(Dimethylamino)-N-(4-(1-(2-methoxyethyl)-3-methyl-2-oxo-2,3-dihydro-1H-imidazo[4,5-c]58uinoline-8-yl)phenyl)azetidine-1-carboxamide] |
| 2 nM | 410 nM | CN1CCN(C(=O)Nc2ccc(-c3ccc4ncc5c(c4c3)n(C3CCOCC3)c(=O)n5C)cn2)CC1 [Ex. 8, 4-Methyl-N-(5-(3-methyl-2-oxo-1-(tetrahydro-2H-pyran-4-yl)-2,3-dihydro-1H-imidazo[4,5-c]quinolin-8-yl)pyridin-2-yl)piperazine-1-carboxamide] |
| < 1 nM | – | COCCn1c(=O)n(C)c2cnc3ccc(-c4ccc(NC(=O)NC5CN(C)C5)cc4)cc3c21 [Ex. 21, 1-(4-(1-(2-Methoxyethyl)-3-methyl-2-oxo-2,3-dihydro-1H-imidazo[4,5-c]quinolin-8-yl)phenyl)-3-(1-methylazetidin-3-yl)urea] |
| < 1 nM | 1580 nM | COCCn1c(=O)n(C)c2cnc3ccc(-c4ccc(OCCCN(C)C)nc4)cc3c21 [Ex. 9, 8-(6-(3-(Dimethylamino)propoxy)43uinolin-3-yl)-1-(2-methoxyethyl)-3-methyl-1,3-dihydro-2H-imidazo[4,5-c]43uinoline-2-one] |
